Data published in patent US20230248845A1, “COMBINATION OF AN ANTIBODY-DRUG CONJUGATE AND AN ANTIBODY-SAPONIN CONJUGATE” (SAPREME TECHNOLOGIES B.V., priority 2020, published 2023).
Like-named read-outs stand apart in the source and are kept apart here.

Key:
Experiment in all cases: Cell viability assay (MTS), targeted protein toxin mediated cell killing
Format in all cases: cell-based, human
A2058 cells (EGFR^−) = conditions: FIG. 8B
Protocol: (§1) After treatment the cells were incubated for 72 hr at 37° C. before the cell viability was determined by a MTS-assay, performed according to the manufacturer's instruction (CellTiter 96® AQueous One Solution Cell Proliferation Assay, Promega). Briefly, the MTS solution was diluted 20× in DMEM without phenol red (PAN-Biotech GmbH) supplemented with 10% FBS. The cells were washed once with 200 μL/PBS well, after which 100 μL diluted MTS solution was added/well. The plate was incubated for approximately 20-30 minutes at 37° C. Subsequently, the OD at 492 nm was measured on a Thermo Scientific Multiskan FC plate reader (Thermo Scientific). For quantification the background signal of ‘medium only’ wells was subtracted from all other wells, before the cell viability percentage of treated/untreated cells was calculated, by dividing the background corrected signal of treated wells over the background corrected signal of the untreated wells (×100).

[1] = test system: MDA-MB-468 cells (HER2^−); conditions: FIG. 9B
Protocol: as §1

SK-BR-3 cells (HER2^++) = test system: SK-BR-3 cells (HER2^++)
Protocol: as §1

A431 cells (EGFR^++) = test system: A431 cells (EGFR^++)
Protocol: as §1

[2] = SO1861 titrated on 10 pM CD71mab-saporin
[3] = SO1861 titrated on 10 pM Pertuzumab-saporin
[4] = SO1861 titrated on 10 pM cetuximab-saporin
[5] = SO1861 titrated on 10 pM matuzumab-dianthin
[6] = SO1861 titrated on 50 pM Pertuzumab-saporin
[7] = SO1861 titrated on 50 pM trastuzumab-saporin
[8] = substance alone, equivalent concentrations, FIG. 2A

CC(=O)O[C@H]1[C@H](O[C@@H]2OC[C@@H](O)[C@H](O)[C@H]2O)[C@@H](O)[C@H](O[C@@H]2[C@H](O)[C@@H](O[C@@H]3O[C@@H](C)[C@H](O[C@@H]4OC[C@@H](O)[C@H](O[C@@H]5O[C@H](CO)[C@@H](O)[C@H](O)[C@H]5O)[C@H]4O)[C@@H](O)[C@H]3O)[C@H](OC(=O)[C@]34CCC(C)(C)C[C@H]3C3=CC[C@@H]5[C@@]6(C)CC[C@H](O[C@@H]7O[C@H](C(=O)O)[C@@H](O)[C@H](O[C@@H]8OC[C@@H](O)[C@H](O)[C@H]8O)[C@H]7O[C@@H]7O[C@H](CO)[C@H](O)[C@H](O)[C@H]7O)[C@@](C)(C=O)[C@@H]6CC[C@@]5(C)[C@]3(C)C[C@H]4O)O[C@@H]2C)O[C@@H]1C [SO1861]
IC50 (A2058 cells (EGFR^−); [2]): 200 nM | IC50 (A2058 cells (EGFR^−); [3]): 200 nM | cell killing activity (A2058 cells (EGFR^−); [4]): not active | cell killing activity (A2058 cells (EGFR^−); [5]): not active | IC50 (A2058 cells (EGFR^−); [6]): 200 nM | IC50 (A2058 cells (EGFR^−); [7]): 200 nM | IC50 [1, 2]: 200 nM | IC50 [1, 3]: > 1000 nM | IC50 [1, 4]: 200 nM | IC50 [1, 5]: 200 nM | IC50 [1, 6]: > 1000 nM | IC50 [1, 7]: > 1000 nM | IC50 (SK-BR-3 cells (HER2^++); SO1861 titrated on 10 pM CD71-saporin, FIG. 9A, read-out: SO1861 IC50 cell killing): 200 nM | IC50 (SK-BR-3 cells (HER2^++); SO1861 titrated on 10 pM Pertuzumab-saporin, FIG. 9A, read-out: SO1861 IC50 cell killing): 200 nM | IC50 (SK-BR-3 cells (HER2^++); SO1861 titrated on 10 pM cetuximab-saporin, FIG. 9A, read-out: SO1861 IC50 cell killing): 200 nM | IC50 (SK-BR-3 cells (HER2^++); SO1861 titrated on 10 pM matuzumab-dianthin, FIG. 9A, read-out: SO1861 IC50 cell killing): 200 nM | IC50 (SK-BR-3 cells (HER2^++); SO1861 titrated on 50 pM Pertuzumab-saporin, FIG. 9A, read-out: SO1861 IC50 cell killing): 200 nM | IC50 (SK-BR-3 cells (HER2^++); SO1861 titrated on 50 pM trastuzumab-saporin, FIG. 9A, read-out: SO1861 IC50 cell killing): 200 nM | IC50 (A431 cells (EGFR^++); SO1861 titrated on 10 pM CD71-saporin, FIG. 8A, read-out: SO1861 IC50 cell killing): 200 nM | IC50 (A431 cells (EGFR^++); SO1861 titrated on 10 pM cetuximab-saporin, FIG. 8A, read-out: SO1861 IC50 cell killing): 200 nM | IC50 (A431 cells (EGFR^++); SO1861 titrated on 10 pM matuzumab-dianthin, FIG. 8A, read-out: SO1861 IC50 cell killing): 200 nM | IC50 (A431 cells (EGFR^++); SO1861 titrated on 10 pM pertuzumab-saporin, FIG. 8A, read-out: SO1861 IC50 cell killing): 300 nM | IC50 (A431 cells (EGFR^++); SO1861 titrated on 50 pM pertuzumab-saporin, FIG. 8A, read-out: SO1861 IC50 cell killing): 200 nM | IC50 (A431 cells (EGFR^++); SO1861 titrated on 50 pM trastuzumab, FIG. 8A, read-out: SO1861 IC50 cell killing): 250 nM

matuzumab-SO1861: SO1861-EMCH conjugated via cysteine residues (Cys) to matuzumab, with a DAR 3,3
IC50 (A431 cells (EGFR^++); substance titrated on fixed 10 pM EGFdianthin, FIG. 6A, read-out: IC50 cell killing): 2 nM | IC50 (A431 cells (EGFR^++); substance titrated on fixed 10 pM cetuximab-saporin, FIG. 6A, read-out: IC50 cell killing): 2 nM

pertuzumab-(Cys-L-SO1861)^4: SO1861-EMCH conjugated via cysteine residues (Cys) to pertuzumab, with a DAR 4
cell killing activity (SK-BR-3 cells (HER2^++); [8]): could not induce any cell killing activity | IC50 (SK-BR-3 cells (HER2^++); substance titrated on fixed 50 pM trastuzumab-saporin, FIG. 2A, read-out: IC50 cell killing): 0.5 nM | cell killing activity at higher concentrations (SK-BR-3 cells (HER2^++); titrated on fixed 50 pM pertuzumab-dianthin, higher concentrations): cell killing activity was reduced

pertuzumab: monoclonal antibody binding human HER2
cell killing activity (SK-BR-3 cells (HER2^++); equivalent concentrations + 50 pM trastuzumab-saporin, FIG. 2A): could not induce any cell killing activity | cell killing activity (SK-BR-3 cells (HER2^++); [8]): could not induce any cell killing activity
